{"source": "ChEMBL document CHEMBL6087433", "about": "“Discovery of ART0380, a Potent and Selective ATR Kinase Inhibitor Undergoing Phase 2 Clinical Studies for the Treatment of Advanced or Metastatic Solid Cancers” (J Med Chem, 2024)", "key": {"physchem [1]": {"assay": "physchem", "conditions": "Simulated Gastric Fluid", "description": "Thermodynamic solubility of the compound in Simulated Gastric Fluid"}, "in vivo [2]": {"assay": "in vivo", "conditions": "Beagle, dog, po, 10 mg/kg"}, "in vivo [3]": {"assay": "in vivo", "conditions": "beagle, dog, iv, 1 mg/kg", "description": "Half life in Beagle dog at 1 mg/kg, iv"}, "in vivo [4]": {"assay": "in vivo", "conditions": "cynomolgus monkey, iv, 1 mg/kg", "description": "Half life in cynomolgus monkey at 1 mg/kg, iv"}, "Cytochrome P450 3A4 [5]": {"biological_target": "T1, Cytochrome P450 3A4 (Homo sapiens, UniProt P08684)", "T1 sequence (P08684 whole entry)": "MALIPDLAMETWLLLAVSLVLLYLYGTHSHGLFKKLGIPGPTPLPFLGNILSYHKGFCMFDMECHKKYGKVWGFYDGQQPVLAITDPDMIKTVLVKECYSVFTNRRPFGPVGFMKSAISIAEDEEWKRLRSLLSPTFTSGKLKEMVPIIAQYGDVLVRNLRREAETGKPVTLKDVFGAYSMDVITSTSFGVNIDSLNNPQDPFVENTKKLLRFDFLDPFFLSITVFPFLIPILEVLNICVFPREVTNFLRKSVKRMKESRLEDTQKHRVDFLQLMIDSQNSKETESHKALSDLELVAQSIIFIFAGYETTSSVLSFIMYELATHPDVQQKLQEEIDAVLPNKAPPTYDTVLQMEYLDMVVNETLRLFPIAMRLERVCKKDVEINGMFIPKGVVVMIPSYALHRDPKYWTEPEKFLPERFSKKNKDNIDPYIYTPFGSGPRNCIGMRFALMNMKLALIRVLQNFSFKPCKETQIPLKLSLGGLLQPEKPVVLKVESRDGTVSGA"}, "in vitro [6]": {"assay": "in vitro", "conditions": "human, plasma", "description": "Protein binding in human plasma assessed as free fraction at 5 uM incubated for 5 hrs by equilibrium dialysis method"}, "in vitro [7]": {"assay": "in vitro", "conditions": "human, hepatocytes", "description": "Intrinsic clearance in human hepatocytes"}, "in vivo [8]": {"assay": "in vivo", "conditions": "CD-1, mouse, po, 30 mg/kg"}, "in vivo [9]": {"assay": "in vivo", "conditions": "Sprague-Dawley, rat, iv, 1 mg/kg", "description": "Half life in Sprague-Dawley rat at 1 mg/kg, iv"}, "[10]": {"biological_target": "Phosphatidylinositol 3-kinase catalytic subunit type 3 (Homo sapiens, UniProt Q8NEB9)", "sequence (Q8NEB9 whole entry)": "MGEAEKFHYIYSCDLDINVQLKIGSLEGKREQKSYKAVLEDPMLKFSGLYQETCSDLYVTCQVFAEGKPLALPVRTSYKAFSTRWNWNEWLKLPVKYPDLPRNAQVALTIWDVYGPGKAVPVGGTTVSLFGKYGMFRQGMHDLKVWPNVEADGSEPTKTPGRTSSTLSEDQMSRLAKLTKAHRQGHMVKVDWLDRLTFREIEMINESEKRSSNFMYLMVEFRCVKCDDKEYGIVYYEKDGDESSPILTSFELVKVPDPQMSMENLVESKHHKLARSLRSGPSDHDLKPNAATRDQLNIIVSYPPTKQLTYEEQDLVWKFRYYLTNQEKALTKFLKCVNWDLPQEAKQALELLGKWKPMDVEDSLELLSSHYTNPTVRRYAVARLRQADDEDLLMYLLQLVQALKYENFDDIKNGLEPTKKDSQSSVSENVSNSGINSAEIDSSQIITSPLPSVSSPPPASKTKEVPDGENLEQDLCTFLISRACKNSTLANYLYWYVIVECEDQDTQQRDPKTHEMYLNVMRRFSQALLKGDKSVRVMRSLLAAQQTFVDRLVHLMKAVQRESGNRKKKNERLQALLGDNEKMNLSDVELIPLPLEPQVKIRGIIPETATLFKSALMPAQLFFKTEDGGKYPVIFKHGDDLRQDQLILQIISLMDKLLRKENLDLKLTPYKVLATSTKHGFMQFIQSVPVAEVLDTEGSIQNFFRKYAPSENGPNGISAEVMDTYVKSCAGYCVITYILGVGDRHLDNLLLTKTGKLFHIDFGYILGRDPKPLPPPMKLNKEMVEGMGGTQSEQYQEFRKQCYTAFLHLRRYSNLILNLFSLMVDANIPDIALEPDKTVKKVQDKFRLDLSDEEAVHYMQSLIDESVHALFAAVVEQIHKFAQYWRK", "description": "Inhibition of VPS34 (unknown origin) by ADP-Glo assay"}, "LoVo [11]": {"test_system": "LoVo", "assay": "animal or person", "conditions": "Mus musculus, po, 480 h, read-out: TGI"}, "[12]": {"biological_target": "Voltage-gated inwardly rectifying potassium channel KCNH2 (Homo sapiens, UniProt Q12809)", "sequence (Q12809 whole entry)": "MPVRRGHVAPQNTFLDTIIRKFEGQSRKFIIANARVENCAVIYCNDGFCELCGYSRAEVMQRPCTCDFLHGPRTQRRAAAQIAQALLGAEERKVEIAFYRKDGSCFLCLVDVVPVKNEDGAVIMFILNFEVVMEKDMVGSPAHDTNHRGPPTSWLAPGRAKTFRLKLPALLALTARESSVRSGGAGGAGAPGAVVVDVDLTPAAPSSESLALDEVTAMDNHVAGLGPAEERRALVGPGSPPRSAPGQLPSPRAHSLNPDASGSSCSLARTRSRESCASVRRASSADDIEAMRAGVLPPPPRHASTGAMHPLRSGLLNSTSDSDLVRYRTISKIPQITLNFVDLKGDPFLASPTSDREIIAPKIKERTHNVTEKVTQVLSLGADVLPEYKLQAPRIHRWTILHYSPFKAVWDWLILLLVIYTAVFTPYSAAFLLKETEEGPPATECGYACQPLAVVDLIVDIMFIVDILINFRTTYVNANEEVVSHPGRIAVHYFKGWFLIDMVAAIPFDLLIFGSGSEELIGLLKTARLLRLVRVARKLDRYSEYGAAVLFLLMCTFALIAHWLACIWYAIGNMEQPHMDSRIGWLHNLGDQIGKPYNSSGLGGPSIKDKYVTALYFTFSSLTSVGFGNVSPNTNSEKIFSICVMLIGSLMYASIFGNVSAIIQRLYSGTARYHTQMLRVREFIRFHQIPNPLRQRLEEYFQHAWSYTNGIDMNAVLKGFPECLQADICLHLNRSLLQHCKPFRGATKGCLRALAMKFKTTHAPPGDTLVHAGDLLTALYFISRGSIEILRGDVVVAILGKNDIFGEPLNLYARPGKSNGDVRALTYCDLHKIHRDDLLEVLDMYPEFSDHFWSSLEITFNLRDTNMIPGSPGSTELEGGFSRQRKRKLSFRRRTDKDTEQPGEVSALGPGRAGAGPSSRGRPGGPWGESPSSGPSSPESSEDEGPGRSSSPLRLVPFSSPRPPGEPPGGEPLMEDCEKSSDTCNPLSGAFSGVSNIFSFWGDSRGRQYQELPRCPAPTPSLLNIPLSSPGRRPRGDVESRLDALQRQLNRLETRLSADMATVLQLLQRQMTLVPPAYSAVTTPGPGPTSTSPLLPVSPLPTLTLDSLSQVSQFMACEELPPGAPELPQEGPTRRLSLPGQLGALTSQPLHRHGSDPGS", "description": "Inhibition of hERG transfected in CHO cells by patch clamp automated cellular electrophysiology analysis"}, "LoVo [13]": {"test_system": "LoVo", "assay": "cells", "conditions": "Homo sapiens", "description": "Antiproliferative activity against human LoVo cells assessed as inhibition of cell growth incubated for 7 days by CellTiter-Glo 2.0 assay"}, "in vivo [14]": {"assay": "in vivo", "conditions": "cynomolgus monkey, po, 10 mg/kg"}, "in vivo [15]": {"assay": "in vivo", "conditions": "CD-1, mouse, po, 10 mg/kg"}, "physchem [16]": {"assay": "physchem", "conditions": "Fed State Simulated Intestinal Fluid", "description": "Thermodynamic solubility of the compound in Fed State Simulated Intestinal Fluid"}, "Cytochrome P450 3A4 [17]": {"biological_target": "T1, Cytochrome P450 3A4", "remark": "listed apart in the source"}, "in vitro [18]": {"assay": "in vitro", "conditions": "human, Caco-2", "description": "Apparent permeability of the compound across apical to basolateral side in human Caco-2 cells at 10 uM"}, "in vivo [19]": {"assay": "in vivo", "conditions": "CD-1, mouse, po, 30 mg/kg", "remark": "listed apart in the source"}, "in vivo [20]": {"assay": "in vivo", "conditions": "Sprague-Dawley, rat, iv, 1 mg/kg", "remark": "listed apart in the source"}, "[21]": {"biological_target": "Phosphatidylinositol 4,5-bisphosphate 3-kinase catalytic subunit gamma isoform (Homo sapiens, UniProt P48736)", "description": "Inhibition of PI3Kgamma (unknown origin) by ADP-Glo assay"}, "in vivo [22]": {"assay": "in vivo", "conditions": "Sprague-Dawley, rat, po, 10 mg/kg"}, "[23]": {"biological_target": "Phosphatidylinositol 4,5-bisphosphate 3-kinase catalytic subunit alpha isoform (Homo sapiens, UniProt P42336)", "sequence (P42336 whole entry, canonical isoform)": "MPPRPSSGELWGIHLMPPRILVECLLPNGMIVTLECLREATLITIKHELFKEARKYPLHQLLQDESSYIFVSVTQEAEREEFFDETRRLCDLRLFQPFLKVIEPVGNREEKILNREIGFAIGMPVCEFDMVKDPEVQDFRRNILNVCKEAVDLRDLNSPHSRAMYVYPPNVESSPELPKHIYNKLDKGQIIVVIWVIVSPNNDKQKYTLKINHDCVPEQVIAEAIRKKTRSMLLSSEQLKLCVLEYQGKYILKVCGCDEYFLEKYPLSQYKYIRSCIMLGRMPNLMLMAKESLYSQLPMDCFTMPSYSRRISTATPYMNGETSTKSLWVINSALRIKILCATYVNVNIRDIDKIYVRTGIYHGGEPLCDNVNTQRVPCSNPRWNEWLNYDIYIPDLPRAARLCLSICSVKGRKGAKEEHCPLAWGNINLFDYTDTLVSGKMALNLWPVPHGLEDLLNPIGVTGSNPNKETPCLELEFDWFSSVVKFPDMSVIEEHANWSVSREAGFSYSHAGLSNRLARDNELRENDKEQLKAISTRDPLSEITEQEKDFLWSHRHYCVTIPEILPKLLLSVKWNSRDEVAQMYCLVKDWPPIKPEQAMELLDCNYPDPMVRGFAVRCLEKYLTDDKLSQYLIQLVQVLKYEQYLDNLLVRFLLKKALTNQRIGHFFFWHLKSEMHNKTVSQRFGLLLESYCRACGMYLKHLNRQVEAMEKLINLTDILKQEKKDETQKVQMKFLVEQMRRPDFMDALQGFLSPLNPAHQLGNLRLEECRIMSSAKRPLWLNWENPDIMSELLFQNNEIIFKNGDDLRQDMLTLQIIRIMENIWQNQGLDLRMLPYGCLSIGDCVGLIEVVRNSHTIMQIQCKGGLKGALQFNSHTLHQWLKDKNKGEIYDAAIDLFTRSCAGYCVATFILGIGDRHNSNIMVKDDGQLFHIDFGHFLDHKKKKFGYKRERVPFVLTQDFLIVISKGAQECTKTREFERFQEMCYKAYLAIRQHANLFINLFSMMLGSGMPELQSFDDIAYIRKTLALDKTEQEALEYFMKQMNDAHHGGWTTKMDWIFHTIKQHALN", "description": "Inhibition of PI3Kalpha (unknown origin) by ADP-Glo assay"}, "in vivo [24]": {"assay": "in vivo", "conditions": "CD-1, mouse, po, 10 mg/kg", "remark": "listed apart in the source"}, "Granta-519": {"test_system": "Granta-519", "assay": "cells", "conditions": "Homo sapiens", "description": "Antiproliferative activity against human Granta-519 cells assessed as inhibition of cell growth incubated for 7 days by CellTiter-Glo 2.0 assay"}, "in vivo [25]": {"assay": "in vivo", "conditions": "CD-1, mouse, plasma, iv, 1 mg/kg"}, "in vitro [26]": {"assay": "in vitro", "conditions": "human, Caco-2", "remark": "listed apart in the source", "description": "Apparent permeability of the compound across basolateral to apical side in human Caco-2 cells at 10 uM"}, "in vitro [27]": {"assay": "in vitro", "conditions": "cynomolgus monkey, plasma", "description": "Protein binding in cynomolgus monkey plasma assessed as free fraction at 5 uM incubated for 5 hrs by equilibrium dialysis method"}, "in vivo [28]": {"assay": "in vivo", "conditions": "beagle, dog, iv, 1 mg/kg", "remark": "listed apart in the source", "description": "Volume of distribution at steady state in Beagle dog at 1 mg/kg, iv"}, "[29]": {"biological_target": "Phosphatidylinositol 4,5-bisphosphate 3-kinase catalytic subunit beta isoform (Homo sapiens, UniProt P42338)", "sequence (P42338 whole entry, canonical isoform)": "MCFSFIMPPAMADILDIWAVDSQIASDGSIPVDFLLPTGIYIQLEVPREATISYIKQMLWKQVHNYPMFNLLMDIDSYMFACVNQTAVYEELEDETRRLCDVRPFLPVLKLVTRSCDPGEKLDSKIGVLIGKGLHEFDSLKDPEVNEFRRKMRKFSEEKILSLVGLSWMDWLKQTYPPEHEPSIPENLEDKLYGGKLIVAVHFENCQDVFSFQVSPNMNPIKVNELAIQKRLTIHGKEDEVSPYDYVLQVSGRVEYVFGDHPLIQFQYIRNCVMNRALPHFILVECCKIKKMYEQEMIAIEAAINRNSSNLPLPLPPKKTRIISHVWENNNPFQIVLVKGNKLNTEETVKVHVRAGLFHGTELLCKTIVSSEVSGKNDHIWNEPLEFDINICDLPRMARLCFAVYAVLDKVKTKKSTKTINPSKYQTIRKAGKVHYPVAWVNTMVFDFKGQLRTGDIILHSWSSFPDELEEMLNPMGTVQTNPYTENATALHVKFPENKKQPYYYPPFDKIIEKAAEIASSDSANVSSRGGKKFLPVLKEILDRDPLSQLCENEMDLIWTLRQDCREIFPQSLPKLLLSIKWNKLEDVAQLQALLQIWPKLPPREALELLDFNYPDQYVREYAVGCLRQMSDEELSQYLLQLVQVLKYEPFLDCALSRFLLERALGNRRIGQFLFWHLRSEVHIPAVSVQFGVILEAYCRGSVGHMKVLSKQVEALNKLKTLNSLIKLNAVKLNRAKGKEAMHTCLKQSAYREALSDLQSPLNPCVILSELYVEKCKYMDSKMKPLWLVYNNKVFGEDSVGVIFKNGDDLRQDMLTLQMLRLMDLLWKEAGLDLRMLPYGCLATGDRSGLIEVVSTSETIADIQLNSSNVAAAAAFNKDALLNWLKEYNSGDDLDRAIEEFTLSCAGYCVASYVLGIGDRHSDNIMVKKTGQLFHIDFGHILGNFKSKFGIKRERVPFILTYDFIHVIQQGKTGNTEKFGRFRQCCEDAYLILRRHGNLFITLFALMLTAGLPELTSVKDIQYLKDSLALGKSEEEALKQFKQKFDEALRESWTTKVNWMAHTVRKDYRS", "description": "Inhibition of PI3Kbeta (unknown origin) by ADP-Glo assay"}, "in vitro [30]": {"assay": "in vitro", "conditions": "rat, plasma", "description": "Protein binding in rat plasma assessed as free fraction at 5 uM incubated for 5 hrs by equilibrium dialysis method"}, "in vivo [31]": {"assay": "in vivo", "conditions": "Beagle, dog, po, 10 mg/kg", "remark": "listed apart in the source"}, "in vivo [32]": {"assay": "in vivo", "conditions": "cynomolgus monkey, po, 10 mg/kg", "remark": "listed apart in the source"}, "in vivo [33]": {"assay": "in vivo", "conditions": "CD-1, mouse, po, 30 mg/kg", "remark": "listed apart in the source"}, "in vivo [34]": {"assay": "in vivo", "conditions": "CD-1, mouse, iv, 1 mg/kg", "description": "Volume of distribution at steady state in CD-1 mouse at 1 mg/kg, iv"}, "CYP3A4": {"biological_target": "CYP3A4 (Homo sapiens, UniProt P08684)", "sequence (P08684 whole entry)": "as the sequence (P08684 whole entry) above", "assay": "in vitro", "conditions": "human liver microsomes, probe midazolam"}, "in vivo [35]": {"assay": "in vivo", "conditions": "CD-1, mouse, po, 10 mg/kg", "remark": "listed apart in the source"}, "in vitro [36]": {"assay": "in vitro", "conditions": "dog, hepatocytes", "description": "Intrinsic clearance in dog hepatocytes"}, "Mus musculus": {"species": "Mus musculus", "conditions": "CD-1, dose 30-50 mg/kg, route po, time 4.0 hrs"}, "physchem [37]": {"assay": "physchem", "conditions": "octanol/phosphate buffer, pH 7.4", "description": "Lipophilicity, log D of the compound in octanol/phosphate buffer at pH 7.4 by shake flask method"}, "in vitro [38]": {"assay": "in vitro", "conditions": "mouse, plasma", "description": "Protein binding in mouse plasma assessed as free fraction at 5 uM incubated for 5 hrs by equilibrium dialysis method"}, "in vivo [39]": {"assay": "in vivo", "conditions": "CD-1, mouse, po, 10 mg/kg", "remark": "listed apart in the source"}, "in vitro [40]": {"assay": "in vitro", "conditions": "cynomolgus monkey, hepatocytes", "description": "Intrinsic clearance in cynomolgus monkey hepatocytes"}, "in vivo [41]": {"assay": "in vivo", "conditions": "CD-1, mouse, iv, 1 mg/kg", "remark": "listed apart in the source", "description": "Half life in CD-1 mouse at 1 mg/kg, iv"}, "in vivo [42]": {"assay": "in vivo", "conditions": "cynomolgus monkey, iv, 1 mg/kg", "remark": "listed apart in the source", "description": "Volume of distribution at steady state in cynomolgus monkey at 1 mg/kg, iv"}, "physchem [43]": {"assay": "physchem", "conditions": "Fasted State Simulated Intestinal Fluid", "description": "Thermodynamic solubility of the compound in Fasted State Simulated Intestinal Fluid"}, "in vitro [44]": {"assay": "in vitro", "conditions": "human, human liver microsomes"}, "in vitro [45]": {"assay": "in vitro", "conditions": "dog, plasma", "description": "Protein binding in dog plasma assessed as free fraction at 5 uM incubated for 5 hrs by equilibrium dialysis method"}, "in vivo [46]": {"assay": "in vivo", "conditions": "Sprague-Dawley, rat, po, 10 mg/kg", "remark": "listed apart in the source"}, "in vitro [47]": {"assay": "in vitro", "conditions": "rat, hepatocytes", "description": "Intrinsic clearance in rat hepatocytes"}, "Cytochrome P450 2C8": {"biological_target": "T2, Cytochrome P450 2C8 (Homo sapiens, UniProt P10632)", "T2 sequence (P10632 whole entry)": "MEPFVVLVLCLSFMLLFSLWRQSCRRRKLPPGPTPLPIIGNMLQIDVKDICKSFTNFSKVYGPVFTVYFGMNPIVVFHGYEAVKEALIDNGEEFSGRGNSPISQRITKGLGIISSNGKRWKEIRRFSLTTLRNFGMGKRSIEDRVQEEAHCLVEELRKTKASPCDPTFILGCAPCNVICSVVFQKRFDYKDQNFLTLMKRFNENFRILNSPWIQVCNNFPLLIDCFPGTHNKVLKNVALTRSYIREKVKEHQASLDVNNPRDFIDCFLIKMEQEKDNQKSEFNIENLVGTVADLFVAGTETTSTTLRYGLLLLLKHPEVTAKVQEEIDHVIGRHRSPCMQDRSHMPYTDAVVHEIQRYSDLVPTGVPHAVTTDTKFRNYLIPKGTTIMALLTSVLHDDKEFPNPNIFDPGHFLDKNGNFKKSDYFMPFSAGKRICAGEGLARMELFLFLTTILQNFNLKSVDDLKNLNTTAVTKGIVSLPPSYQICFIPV", "description": "Inhibition of CYP2C8 in human liver microsomes by LC-MS/MS analysis"}}, "note": "Active and inactive are the calls of the source. No cut-off for these calls is given here.", "data": [{"smiles": "C[C@@H]1COCCN1c1cc(N=[S@@](C)(=O)C2CC2)nc(-c2ccnc(N)c2)n1", "values": [{"measurement": "solubility thermodynamic", "setting": "physchem [1]", "result": "> 13000", "unit": "µg/mL"}, {"measurement": "Cmax", "setting": "in vivo [2]", "result": 1930, "unit": "nM"}, {"measurement": "half-life", "setting": "in vivo [3]", "result": 186, "unit": "min"}, {"measurement": "half-life", "setting": "in vivo [4]", "result": 78, "unit": "min"}, {"measurement": "IC50", "setting": "Cytochrome P450 3A4 [5]", "result": "> 10", "unit": "µM"}, {"measurement": "fraction unbound at 5 h, 5 µM", "setting": "in vitro [6]", "result": 0.45}, {"measurement": "CLint scaled", "setting": "in vitro [7]", "result": 8, "unit": "mL/min/kg"}, {"measurement": "AUC(0-t)", "setting": "in vivo [8]", "result": 25.3, "unit": "µM·h"}, {"measurement": "half-life", "setting": "in vivo [9]", "result": 36, "unit": "min"}, {"measurement": "IC50", "setting": "[10]", "result": "> 50", "unit": "µM"}, {"measurement": "inhibition in vivo at 30 mg/kg", "setting": "LoVo [11]", "result": 72, "unit": "%"}, {"measurement": "IC50", "setting": "[12]", "result": "> 10", "unit": "µM"}, {"measurement": "EC50", "setting": "LoVo [13]", "result": 1.15, "unit": "µM"}, {"measurement": "Cmax", "setting": "in vivo [14]", "result": 40, "unit": "nM"}, {"measurement": "Tmax", "setting": "in vivo [15]", "result": 15, "unit": "min"}, {"measurement": "solubility thermodynamic", "setting": "physchem [16]", "result": "> 5000", "unit": "µg/mL"}, {"measurement": "IC50", "setting": "Cytochrome P450 3A4 [17]", "result": "> 10", "unit": "µM"}, {"measurement": "Papp A→B at 10 µM", "setting": "in vitro [18]", "result": 17, "unit": "×10⁻⁶ cm/s"}, {"measurement": "Tmax", "setting": "in vivo [19]", "result": 15, "unit": "min"}, {"measurement": "Vd", "setting": "in vivo [20]", "result": 3.9, "unit": "L/kg"}, {"measurement": "IC50", "setting": "[21]", "result": "> 50", "unit": "µM"}, {"measurement": "AUC(0-t)", "setting": "in vivo [22]", "result": 3.78, "unit": "µM·h"}, {"measurement": "IC50", "setting": "[23]", "result": 29, "unit": "µM"}, {"measurement": "AUC(0-t)", "setting": "in vivo [24]", "result": 4.25, "unit": "µM·h"}, {"measurement": "EC50", "setting": "Granta-519", "result": 0.448, "unit": "µM"}, {"measurement": "clearance", "setting": "in vivo [25]", "result": 69, "unit": "mL/min/kg"}, {"measurement": "Papp B→A at 10 µM", "setting": "in vitro [26]", "result": 34, "unit": "×10⁻⁶ cm/s"}, {"measurement": "fraction unbound at 5 h, 5 µM", "setting": "in vitro [27]", "result": 0.54}, {"measurement": "Vd", "setting": "in vivo [28]", "result": 3.6, "unit": "L/kg"}, {"measurement": "IC50", "setting": "[29]", "result": "> 50", "unit": "µM"}, {"measurement": "fraction unbound at 5 h, 5 µM", "setting": "in vitro [30]", "result": 0.48}, {"measurement": "Tmax", "setting": "in vivo [31]", "result": 34.8, "unit": "min"}, {"measurement": "Tmax", "setting": "in vivo [32]", "result": 49.8, "unit": "min"}, {"measurement": "Cmax", "setting": "in vivo [33]", "result": 16100, "unit": "nM"}, {"measurement": "Vd", "setting": "in vivo [34]", "result": 4.9, "unit": "L/kg"}, {"measurement": "inhibition at 0.5 h, 10 µM", "setting": "CYP3A4", "result": 0.96, "unit": "%"}, {"measurement": "Cmax", "setting": "in vivo [35]", "result": 3160, "unit": "nM"}, {"measurement": "CLint scaled", "setting": "in vitro [36]", "result": 6, "unit": "mL/min/kg"}, {"measurement": "inhibition", "setting": "Mus musculus", "result": "Active"}, {"measurement": "logD", "setting": "physchem [37]", "result": 1.62}, {"measurement": "fraction unbound at 5 h, 5 µM", "setting": "in vitro [38]", "result": 0.33}, {"measurement": "bioavailability", "setting": "in vivo [39]", "result": 77, "unit": "%"}, {"measurement": "CLint scaled", "setting": "in vitro [40]", "result": 10, "unit": "mL/min/kg"}, {"measurement": "half-life", "setting": "in vivo [41]", "result": 168, "unit": "min"}, {"measurement": "Vd", "setting": "in vivo [42]", "result": 2, "unit": "L/kg"}, {"measurement": "solubility thermodynamic", "setting": "physchem [43]", "result": 1600, "unit": "µg/mL"}, {"measurement": "CLint scaled at 0.75 h, 1 µM", "setting": "in vitro [44]", "result": 2.3, "unit": "mL/min/kg"}, {"measurement": "fraction unbound at 5 h, 5 µM", "setting": "in vitro [45]", "result": 0.55}, {"measurement": "Tmax", "setting": "in vivo [46]", "result": 11.4, "unit": "min"}, {"measurement": "CLint scaled", "setting": "in vitro [47]", "result": 29, "unit": "mL/min/kg"}, {"measurement": "IC50", "setting": "Cytochrome P450 2C8", "result": "> 10", "unit": "µM"}]}]}
